This passage reports Mechanistic reference, PDE inhibition and Inotropic effect results from ChEMBL document CHEMBL1123575, “In search of the digitalis replacement” (J Med Chem, 1987).

SMILES strings stand for the structures. Where “and” joins values, the source holds several entries; their conditions need not be identical. Identical values can stand only once.

Test [1] can be described thus: Compound was evaluated for its inotropic activity by its ability to increase Myofibrillar Ca++ sensitivity. It counts as functional.
In test [2] the target is T1, Phosphodiesterase; PDE3 & PDE4 (Homo sapiens) (UniProt P27815+Q14432+Q08499+Q07343+Q13370+Q08493). The test is described as follows: Inhibition of cAMP Phosphodiesterase enzyme. It counts as protein assay.
Test [3] has as its target Beta-1 adrenergic receptor (Homo sapiens) (UniProt P08588).
Description: Positive inotropic effects by direct or indirect beta-1 adrenergic receptor activation.
Test [4] has the same target. The test is described as follows: Compound was tested for its inotropic effect by activation of beta-1 adrenergic receptor directly or indirectly; activity values are 73,75.
Test [5] has as its target T1, Phosphodiesterase; PDE3 & PDE4 (Homo sapiens). The test is described as follows: Compound was evaluated for its inotropic activity by the inhibition of cAMP Phosphodiesterase enzyme. It counts as protein assay.
The target of test [6] is Beta-1 adrenergic receptor (Homo sapiens) (UniProt P08588). The test is described as follows: Compound was tested for its inotropic effect by activation of beta-1 adrenergic receptor directly or indirectly; activity values are 70,71.
Chain of Beta-1 adrenergic receptor (Homo sapiens) (P08588 whole entry, looked up): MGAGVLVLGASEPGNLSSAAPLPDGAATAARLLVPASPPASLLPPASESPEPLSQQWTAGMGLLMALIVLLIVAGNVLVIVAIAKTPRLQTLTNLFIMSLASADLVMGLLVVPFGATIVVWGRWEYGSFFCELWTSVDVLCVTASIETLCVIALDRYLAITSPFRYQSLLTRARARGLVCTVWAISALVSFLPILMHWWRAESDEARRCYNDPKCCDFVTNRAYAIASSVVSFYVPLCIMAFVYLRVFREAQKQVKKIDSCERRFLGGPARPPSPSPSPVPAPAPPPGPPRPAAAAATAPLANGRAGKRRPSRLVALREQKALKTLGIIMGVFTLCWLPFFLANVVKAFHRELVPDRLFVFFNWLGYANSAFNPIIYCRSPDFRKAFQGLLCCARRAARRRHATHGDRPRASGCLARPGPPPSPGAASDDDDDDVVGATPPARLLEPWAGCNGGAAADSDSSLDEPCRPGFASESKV

Compound `Cc1nc(O)c(N)cc1-c1ccccc1` registered a Mechanistic reference in test [1] of 62. Further, the PDE inhibition in test [2] was 62. Consider `C[C@@H]1C(=O)NC2=Nc3cccc(Cl)c3CN21`, for which, in test [3], the Inotropic effect was 89. The compound also gave a PDE inhibition in test [2] of 88. With `O=C1CCC(c2ccc3c(c2)NC(=O)CC3)=NN1`, the PDE inhibition in test [2] stood at 83.

In turn, `CCc1nc(O)ncc1-c1ccc(O)cc1` displayed an Inotropic effect in test [3] of 67. Further, in test [2], the PDE inhibition turned out to be 67. `CSc1ccc(C(=O)c2[nH]c(=O)[nH]c2C)cc1` registered an Inotropic effect in test [4] of 75. The compound further showed a PDE inhibition in test [2] of 72.

In turn, `Cc1[nH]c(=O)c(C#N)cc1-c1ccncc1` displayed a PDE inhibition in test [2] of 58. `COc1ccc2[nH]c(=O)nc(C)c2c1OC` yielded a PDE inhibition in test [2] of 91. Compound `Cc1nc(=O)c(C#N)c(NCc2cccnc2)[nH]1` gave an Inotropic effect in test [3] of 66. Also, the PDE inhibition in test [5] is 64 and 65.

For the compound `CNCCc1ccc(OC(=O)C(C)C)c(OC(=O)C(C)C)c1`, the Inotropic effect in test [3] amounted to 38. Same read-out and setting: to `Oc1ccc(CCNCCCCCCNCCc2ccccc2)cc1O` belongs 36. `CN(C(=O)CCCOc1ccc2c(c1)CN1CC(=O)NC1=N2)C1CCCCC1`: in test [2], the PDE inhibition amounted to 90. On to `C[C@H](CCc1ccc(O)cc1)NC[C@H](O)c1ccc(O)cc1`, for which, in test [3], the Inotropic effect was found to be 39. Take `CC(C)NC[C@H](O)COc1ccc(O)cc1`: in test [3], the Inotropic effect was 35 and 34. Regarding `CC1CC(O)=NN=C1c1ccc(-n2ccnc2)cc1` (stereo not given), in test [2], the PDE inhibition was found to be 76. `COc1ccc(-c2nc3cc(C4=NNC(=O)CC4C)ccc3[nH]2)cc1` (stereo not given) registered an Inotropic effect in test [3] of 82. Also, the PDE inhibition in test [5] is 81 and 80. For `CC(CCc1ccc(O)cc1)NCCc1ccc(O)c(O)c1` (stereo not given), the Inotropic effect in test [3] was found to be 26. Take `CC(=O)Nc1ccc(-c2cnc(O)cn2)cc1`: in test [2], the PDE inhibition was found to be 63.

Compound `CCNC(=O)OC1CCN(c2nncc3cc(OC)c(OC)cc23)CC1` gave an Inotropic effect in test [3] of 86. The PDE inhibition in test [2] worked out at 86.

As for `COc1ccc(C(=O)N2CCN(c3ccc4c(c3)CCC(=O)N4)CC2)cc1OC`, the PDE inhibition in test [2] was determined as 87. As to `OC(CNCCC1c2ccccc2Oc2ccccc21)COc1ccccc1` (stereo not given), the Inotropic effect in test [3] was 45 and 44. In test [3], `Nc1cc(-c2ccncc2)c[nH]c1=O` came in with an Inotropic effect of 57. Besides, the PDE inhibition in test [5] was 57 and 56 and 24. Compound `CCCCNC(=O)NC1CCN(c2ncnc3cc(OC)c(OC)cc23)CC1` came in with an Inotropic effect in test [3] of 85. In test [2], this compound came in with a PDE inhibition of 84. Turning to `CCc1[nH]c(=O)[nH]c1C(=O)c1ccncc1`, in test [6], the Inotropic effect was 71. The same compound returned a PDE inhibition in test [2] of 68. In turn, `O=C1CCC(c2ccc(-n3ccnc3)cc2)=NN1` registered an Inotropic effect in test [3] of 78. This compound came in with a PDE inhibition in test [2] of 76.
